Data on 3 compounds can be found in ChEMBL document CHEMBL1144122, “New scalaranes from the nudibranch Glossodoris atromarginata and its sponge prey” (1999).

Active and inactive are the calls of the source. The rule behind the calls is not given here.

For one assay, the species on record is Homo sapiens. As to the kind of experiment: (§1) Cytotoxicity against human thyroid carcinoma cells assessed as mortality. Format: functional.
A short description of assay [1]: as §1. Type of assay: functional.

As for `CC1(C)CCC[C@]2(C)[C@H]3C[C@@H](O)[C@]4(C)[C@@H]5C(=CC[C@H]4[C@]3(C)CC[C@@H]12)CO[C@H]5O`, the result in the assay listed under Homo sapiens was inactive. Consider `CC(=O)O[C@@H]1OC=C2[C@@H](OC(C)=O)C[C@H]3[C@]4(C)CC[C@H]5C(C)(C)CCC[C@]5(C)[C@H]4C[C@@H](O)[C@]3(C)[C@H]21` [HETERONEMIN], for which, in assay [1], the Activity is 30%. Same read-out and setting: in the case of `CC1(C)CCC[C@]2(C)[C@H]3CC(=O)[C@]4(C)[C@@H]5C(=CC[C@H]4[C@]3(C)CC[C@@H]12)CO[C@H]5O` it was 25%.
